Results: patent publication US6800635B2, “Crystalline form II of cabergoline” (Pharmacia Italia, S.p.A., priority 2000, dated 2004)

Test: Relative thermodynamic stability of cabergoline polymorphs (slurry of a mixture of forms I and II)
Assay type: physicochemical
Conditions: range of temperature between −70 and +30° C.; compared with Form I
Method: It can be readily prepared starting from crude material by crystallization from several solvents at low temperatures. Alternatively it can be prepared by slurry of a mixture of forms I and II in a solvent at a temperature below 30° C. The importance of cabergoline form II rests primarily (but not exclusively) in its thermodynamic stability.
Crystalline Form II cabergoline may be also prepared by subjecting a mixture of crystal forms I and II of cabergoline to a slurry procedure at a temperature below 30° C. Preferably, the mixture is stirred at room temperature in organic aliphatic linear C4-7 alkanes or C4-C5 ethers such as n-hexane or diethyl ether. In the mixture, the Form I/Form II ratio is preferably from 10:1 to 1:10. The resultant crystals were collected as above described.
A mixture of 200 mg of form I and of an equal amount of form II was added to 50 ml of n-hexane at 25° C. The suspension was stirred for about 12 hours, then filtered using a glass filter under vacuum. The collected crystals were identified by analytical methods as pure form II. The analytical data were the same of example 1.
A mixture of 50 mg of form I and of 350 mg of form II was added to 5 ml of diethyl ether at −5° C. The suspension was stirred for about 12 hours, then filtered using a glass filter under vacuum. The collected crystals were identified by analytical methods as pure form II. […]

thermodynamic stability of the polymorph: thermodynamically most stable polymorph
SMILES: C=CCN1C[C@H](C(=O)N(CCCN(C)C)C(=O)NCC)C[C@@H]2c3cccc4[nH]cc(c34)C[C@H]21 [Form II, 1((6-allylergolin-8Beta-yl)-carbonyl)-1-(3-dimethylaminopropyl)-3-ethylurea]
